Results taken from ChEMBL document CHEMBL6083293, “Novel Benzimidazole Derivatives as Potent Inhibitors of Microsomal Prostaglandin E2 Synthase 1 for the Potential Treatment of Inflammation, Pain, and Fever” (J Med Chem, 2024).
The source made the active and inactive calls. The rule behind the calls is not given here.

Columns and labels:
[1] = Metabolic stability in human liver microsome assessed as half life; format: ADME; conditions: liver microsomes
[2] = Metabolic stability in guinea pig liver microsome assessed as half life; format: ADME, Cavia porcellus; conditions: liver microsomes
[3] = Metabolic stability in human liver microsome assessed as intrinsic clearance; format: ADME; conditions: liver microsomes, read-out: CLH
[4] = Metabolic stability in guinea pig liver microsome assessed as intrinsic clearance; format: ADME, Cavia porcellus; conditions: liver microsomes, read-out: CLH
[5] = molecular target: T1, Prostaglandin E synthase (Homo sapiens) (UniProt O14684); test: Inhibition of mPGES-1 in human M1-like MDM cells assessed as reduction in PGE2 formation at 10 uM; format: cell-based
T1 sequence (whole entry): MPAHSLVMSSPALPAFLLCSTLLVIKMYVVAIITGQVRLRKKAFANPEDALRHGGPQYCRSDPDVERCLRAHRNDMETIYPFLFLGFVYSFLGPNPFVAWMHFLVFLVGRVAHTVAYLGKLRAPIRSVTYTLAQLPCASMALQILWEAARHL

[6] = molecular target: T1, Prostaglandin E synthase (Homo sapiens); test: Inhibition of mPGES-1 in human M1-like MDM cells assessed as reduction in TXB2 formation at 10 uM; format: cell-based
Cavia porcellus [7] = test: Anti-inflammatory activity against carrageenan-induced paw edema in guinea pig assessed as reduction in paw swelling at 10 mg/kg, po measured at 240 mins; format: functional, organism-based
Cavia porcellus [8] = test: Anti-hyperalgesic activity against carrageenan-induced guinea pig mechanical hyperalgesia model at 10 mg/kg, po; format: functional, organism-based
[9] = Hepatotoxicity in guinea pig assessed as increase in ALP level in plasma at 10 mg/kg, po; format: toxicity, organism-based, Cavia porcellus; conditions: in vivo
[10] = Toxicity in guinea pig assessed as increase in sinusoidal capillary diameter at 10 mg/kg, po; format: organism-based, Cavia porcellus; conditions: in vivo
[11] = Toxicity in guinea pig assessed as increase in number of vacuolated hepatocytes at 10 mg/kg, po; format: organism-based, Cavia porcellus; conditions: in vivo
[12] = Clearance in guinea pig at 2 mg/kg, iv; format: ADME, organism-based, Cavia porcellus; conditions: in vivo
[13] = Volume of distribution at steady state in guinea pig at 2 mg/kg, iv; format: ADME, organism-based, Cavia porcellus; conditions: in vivo, read-out: Vdss
[14] = Half life in guinea pig at 2 mg/kg, iv; format: ADME, organism-based, Cavia porcellus; conditions: in vivo
[15] = Initial plasma concentration in guinea pig at 2 mg/kg, iv; format: ADME, organism-based, Cavia porcellus
[16] = Oral bioavailability in guinea pig at 20 mg/kg; format: ADME, organism-based, Cavia porcellus; conditions: in vivo
[17] = Half life in guinea pig at 20 mg/kg, po; format: ADME, organism-based, Cavia porcellus; conditions: in vivo
[18] = Cmax in guinea pig at 20 mg/kg, po; format: ADME, organism-based, Cavia porcellus; conditions: in vivo
[19] = AUC (0 to infinity) in guinea pig at 20 mg/kg, po; format: ADME, organism-based, Cavia porcellus; conditions: in vivo
[20] = molecular target: T2, Prostaglandin G/H synthase 1 (Ovis aries) (UniProt P05979); test: Inhibition of ovine COX-1 at 1 uM using arachidonic acid as substrate preincubated for 6 mins followed by substrate addition and measured after 10 mins by RP-HPLC analysis; conditions: time 16.0 min
T2 sequence (whole entry): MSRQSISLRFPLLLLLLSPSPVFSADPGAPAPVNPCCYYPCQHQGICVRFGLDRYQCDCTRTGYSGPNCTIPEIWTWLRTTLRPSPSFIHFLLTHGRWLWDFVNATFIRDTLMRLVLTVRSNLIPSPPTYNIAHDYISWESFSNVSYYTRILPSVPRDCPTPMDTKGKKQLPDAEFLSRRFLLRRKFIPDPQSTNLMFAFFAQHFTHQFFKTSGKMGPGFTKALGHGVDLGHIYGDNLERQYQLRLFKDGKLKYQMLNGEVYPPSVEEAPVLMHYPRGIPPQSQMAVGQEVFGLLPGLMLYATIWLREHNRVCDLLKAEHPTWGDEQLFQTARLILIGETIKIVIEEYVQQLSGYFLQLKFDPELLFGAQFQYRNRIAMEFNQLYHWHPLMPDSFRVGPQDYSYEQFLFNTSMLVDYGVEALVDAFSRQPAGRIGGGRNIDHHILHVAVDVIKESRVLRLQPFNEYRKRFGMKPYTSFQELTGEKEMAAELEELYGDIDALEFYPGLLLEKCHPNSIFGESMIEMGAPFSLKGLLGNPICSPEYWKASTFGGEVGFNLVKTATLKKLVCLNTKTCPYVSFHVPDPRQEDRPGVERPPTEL

[21] = molecular target: T3, Prostaglandin G/H synthase 2 (Homo sapiens) (UniProt P35354); test: Inhibition of human recombinant COX-2 at 1 uM using arachidonic acid as substrate preincubated for 6 mins followed by substrate addition and measured after 10 mins by RP-HPLC analysis; conditions: time 16.0 min
T3 sequence (whole entry): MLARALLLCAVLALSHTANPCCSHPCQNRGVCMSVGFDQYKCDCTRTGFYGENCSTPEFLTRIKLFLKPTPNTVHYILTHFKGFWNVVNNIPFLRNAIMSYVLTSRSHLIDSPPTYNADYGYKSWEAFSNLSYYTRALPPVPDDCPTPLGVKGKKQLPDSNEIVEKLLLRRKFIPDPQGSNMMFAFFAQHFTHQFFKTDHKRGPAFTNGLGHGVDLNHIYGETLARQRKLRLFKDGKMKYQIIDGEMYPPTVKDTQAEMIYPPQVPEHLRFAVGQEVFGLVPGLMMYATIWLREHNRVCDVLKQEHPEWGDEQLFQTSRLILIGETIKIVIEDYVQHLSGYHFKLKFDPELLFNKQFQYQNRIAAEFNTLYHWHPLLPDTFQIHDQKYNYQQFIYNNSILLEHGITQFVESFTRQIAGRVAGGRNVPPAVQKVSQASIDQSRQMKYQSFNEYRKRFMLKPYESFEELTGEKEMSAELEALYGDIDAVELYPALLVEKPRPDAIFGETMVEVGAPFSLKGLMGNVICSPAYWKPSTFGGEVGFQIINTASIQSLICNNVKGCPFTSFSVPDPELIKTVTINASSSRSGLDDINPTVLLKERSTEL

[22] = molecular target: T4, Polyunsaturated fatty acid 5-lipoxygenase (Homo sapiens) (UniProt P09917); test: Inhibition of human recombinant 5-LOX expressed in Escherichia coli BL21(DE3) at 1 uM using arachidonic acid as substrate preincubated with compound for 15 mins followed by substrate and CaCl2 addition measured after 10 mins by RP-HPLC analysis; conditions: time 25.0 min
T4 sequence (whole entry): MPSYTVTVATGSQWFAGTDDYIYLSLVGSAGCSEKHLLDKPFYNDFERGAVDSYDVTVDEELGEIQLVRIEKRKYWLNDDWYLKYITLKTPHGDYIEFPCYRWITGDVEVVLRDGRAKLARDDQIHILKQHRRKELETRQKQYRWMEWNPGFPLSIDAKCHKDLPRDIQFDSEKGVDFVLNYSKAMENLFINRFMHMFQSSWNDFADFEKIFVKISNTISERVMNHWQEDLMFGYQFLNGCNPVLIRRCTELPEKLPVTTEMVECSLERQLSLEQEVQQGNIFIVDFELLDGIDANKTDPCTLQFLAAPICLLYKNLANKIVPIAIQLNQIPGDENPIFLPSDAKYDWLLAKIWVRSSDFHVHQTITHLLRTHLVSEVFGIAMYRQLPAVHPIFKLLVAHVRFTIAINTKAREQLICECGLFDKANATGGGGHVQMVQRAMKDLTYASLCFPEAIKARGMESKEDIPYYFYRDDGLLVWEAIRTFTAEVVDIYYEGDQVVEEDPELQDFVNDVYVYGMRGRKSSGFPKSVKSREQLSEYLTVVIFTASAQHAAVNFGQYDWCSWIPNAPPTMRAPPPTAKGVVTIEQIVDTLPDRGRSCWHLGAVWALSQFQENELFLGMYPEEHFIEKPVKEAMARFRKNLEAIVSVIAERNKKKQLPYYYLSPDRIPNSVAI

[23] = molecular target: T5, Arachidonate 5-lipoxygenase-activating protein (Homo sapiens) (UniProt P20292); test: Inhibition of FLAP in calcium ionophore A23187-stimulated human Neutrophil cells at 1 uM preincubated for 15 mins followed by calcium ionophore A23187 stimulation for 10 mins by RP-HPLC analysis; format: cell-based; conditions: time 25.0 min
T5 sequence (whole entry): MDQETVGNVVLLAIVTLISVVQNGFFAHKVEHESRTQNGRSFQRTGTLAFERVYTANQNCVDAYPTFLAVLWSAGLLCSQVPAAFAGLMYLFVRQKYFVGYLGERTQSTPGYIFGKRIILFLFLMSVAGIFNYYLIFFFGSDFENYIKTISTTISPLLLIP

[24] = Cytotoxicity against human MDM cells assessed as LDH release at 3 uM measured after 3 hrs; format: toxicity, cell-based
[25] = Cytotoxicity against human MDM cells assessed as metabolic activity at 3 uM measured after 48 hrs by MTT assay; format: toxicity, cell-based
Cavia porcellus [26] = test: Anti-inflammatory activity against carrageenan-induced paw edema in guinea pig assessed as inhibition of edema formation at 30 mg/kg, po measured at 120 mins; format: functional, organism-based
Cavia porcellus [27] = test: Anti-inflammatory activity against carrageenan-induced paw edema in guinea pig assessed as inhibition of edema formation at 30 mg/kg, po measured at 240 mins; format: functional; conditions: 4 h
Cavia porcellus [28] = test: Anti-hyperalgesic activity against carrageenan-induced guinea pig mechanical hyperalgesia model at 30 mg/kg, po; format: functional, organism-based
Cavia porcellus [29] = test: Anti-pyretic activity against LPS-induced guinea pig pyresis model assessed as increase in rectal temperature at 30 mg/kg, po measured at 180 to 240 mins; format: functional, organism-based; conditions: time 180-240 min
[30] = Hepatotoxicity in guinea pig assessed as increase in ALP level in plasma at 30 mg/kg, po; format: toxicity, organism-based, Cavia porcellus; conditions: in vivo
[31] = Hepatotoxicity in guinea pig assessed as effect on ALT level in plasma at 30 mg/kg, po; format: toxicity, organism-based, Cavia porcellus; conditions: in vivo
[32] = Hepatotoxicity in guinea pig assessed as effect on AST level in plasma at 30 mg/kg, po; format: toxicity, organism-based, Cavia porcellus; conditions: in vivo
[33] = Toxicity in guinea pig assessed as increase in sinusoidal capillary diameter at 30 mg/kg, po; format: organism-based, Cavia porcellus; conditions: in vivo
[34] = Toxicity in guinea pig assessed as increase in number of vacuolated hepatocytes at 30 mg/kg, po; format: organism-based, Cavia porcellus; conditions: in vivo

Compound	half-life [1] [min]	half-life [2] [min]	microsomal CLint [3] [µL/min/mg]	microsomal CLint [4] [µL/min/mg]	clearance [12] [mL/min/kg]	Vd [13] [L/kg]	half-life [14] [min]	C0 [15] [ng/mL]	bioavailability [16] [%]	half-life [17] [min]	Cmax [18] [ng/mL]	AUC(0-inf) [19] [ng·h/mL]	also measured
CC(C)(C(=O)NCc1ccc(Cl)c(C(=O)Nc2ccc(Cc3nc4cc(C(F)(F)F)ccc4[nH]3)cc2)c1)C(F)(F)F	51.2	49.3	27.4	28.2	–	–	–	–	–	–	–	–	–
COc1ccc2c(c1)c(CC(=O)O)c(C)n2C(=O)c1ccc(Cl)cc1 [INDOMETHACIN]	–	–	–	–	–	–	–	–	–	–	–	–	inhibition [5]: inactive; inhibition [6]: inactive; Activity (Cavia porcellus [7]): Active; Activity (Cavia porcellus [8]): Active; Activity [9]: Toxic; Activity [10]: Non-toxic; Activity [11]: Non-toxic
O=C(Nc1ccc(-c2nc3cc(C(F)(F)F)ccc3[nH]2)cc1)c1cc(CNC(=O)C2(C(F)(F)F)CCC2)ccc1Cl	4.4	8.5	315	163	87.7	10	336	733	16	342	49	620	–
O=C(Nc1ccc(-c2nc3cc(C(F)(F)F)ccc3[nH]2)cc1)c1cc(CNC(=O)C2(C(F)(F)F)CC2)ccc1Cl	30.7	185	45.2	< 7.5	14.9	4.1	234	878	61	288	1370	13800	inhibition [20]: Active; inhibition [21]: Active; inhibition [22]: Active; inhibition [23]: Active; Activity [24]: Non-toxic; Activity [25]: Non-toxic; Activity (Cavia porcellus [26]): Active; inhibition in vivo at 30 mg/kg (Cavia porcellus [27]): 60%; Activity (Cavia porcellus [28]): Active; Activity (Cavia porcellus [29]): Active; Activity [30]: Non-toxic; Activity [31]: Non-toxic; Activity [32]: Non-toxic; Activity [33]: Mild_effect; Activity [34]: Mild_effect
CC(C)(C)C(=O)NCc1ccc(Cl)c(C(=O)Nc2ccc(-c3nc4cc(C(F)(F)F)ccc4[nH]3)cc2)c1	5.6	4.6	247	302	–	–	–	–	–	–	–	–	–
CC(C)(C(=O)NCc1ccc(Cl)c(C(=O)Nc2ccc(-c3nc4cc(C(F)(F)F)ccc4[nH]3)cc2)c1)C(F)(F)F	6.8	103	203	13.9	–	–	–	–	–	–	–	–	–
